Data reported in US20150004262A1, “ANESTHETIC AND THERAPEUTIC COMPOSITION FOR USE IN AQUACULTURE” (priority 2012, published 2015).

How the values were obtained:
[1] = Experiment 8: oil residues in fish fillet tissue, sobaity; parameters: species or system Sparidentex hasta; details: in vivo
Excerpt: (§1) Thyme oil consists mainly of thymol. On the other hand, oregano oil consists mainly of carvacrol (40-70%) and thymol, while cinnamon oil consists mainly of (65 to 75% of the oil) is cinnamaldehyde.

[2] = Experiment 8: oil residues in fish fillet tissue, sheam; parameters: species or system Acanthopagrus latus; details: in vivo
Excerpt: as §1

[3] = tested on: serum MDA (TBARS); experiment: Serum TBARS assay, sheam; format: in vivo, Acanthopagrus latus
Excerpt: (§2) C. Thiobarbituric Acid Reactive Substances (TRARS) Assay.

[4] = tested on: serum MDA (TBARS); experiment: Serum TBARS assay, sobaity; format: in vivo, Sparidentex hasta
Excerpt: as §2

Row | Molecule | residue in fillet tissue [1] | residue in fillet tissue [2] | MDA [3] | Relative Activity (RA) in comparison to control serum [3] | MDA [4] | Relative Activity (RA) in comparison to control serum [4]
1 | cinnamon oil (Cinnamomum zeylanicum) | 0.52 ppm/fish | 0.17 ppm/fish | – | – | – | –
2 | Cc1ccc2ccccc2n1 [Quinaldene, quinaldine] | – | – | 0.0410 ± 0.002 nmol/mL | 89.13 | 0.0365 ± 0.003 nmol/mL | 79.27
